Values joined by “and” are separate entries in the source; they are usually repeats but may differ in a detail not shown here. Equal entries are not always repeated.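 Results reflect a 48-hour exposure of cells in 96-well plates to compound at five concentrations. The concentration for 50% growth inhibition is given as GI50. The concentration for full growth arrest is given as TGI.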
Experiments:
Assay in all cases: NCI anticancer screen, dose series, 48 h
DU-145 prostate = tested on: DU-145 prostate
U251 CNS = tested on: U251 CNS
SF-268 CNS = tested on: SF-268 CNS
BT-549 breast = tested on: BT-549 breast
786-0 renal = tested on: 786-0 renal
SR leukemia = tested on: SR leukemia
SF-539 CNS = tested on: SF-539 CNS
KM12 colon = tested on: KM12 colon
OVCAR-4 ovarian = tested on: OVCAR-4 ovarian
UO-31 renal = tested on: UO-31 renal

Row | SMILES | GI50 (DU-145 prostate) | TGI (DU-145 prostate) | GI50 (U251 CNS) | TGI (U251 CNS) | GI50 (SF-268 CNS) | TGI (SF-268 CNS) | GI50 (BT-549 breast) | TGI (BT-549 breast) | GI50 (786-0 renal) | TGI (786-0 renal) | GI50 (SR leukemia) | TGI (SR leukemia) | GI50 (SF-539 CNS) | TGI (SF-539 CNS) | GI50 (KM12 colon) | TGI (KM12 colon) | GI50 (OVCAR-4 ovarian) | TGI (OVCAR-4 ovarian) | GI50 (UO-31 renal) | TGI (UO-31 renal)
1 | CC(C)=CCC(OC(=O)C=C(C)C)C1=CC(=O)c2c(O)ccc(O)c2C1=O (stereo not drawn) | 1.72 µM | 3.92 µM | 1.71 µM | 3.61 µM and 9.1 µM | 3.35 µM | 9.83 µM and 4.06 µM | 0.59 µM | 1.98 µM | 2.59 µM | 6.86 µM | 0.123 µM | > 100 µM | 2.02 µM | 4.46 µM and 4.93 µM | 6.61 µM | 23.9 µM and 6.52 µM | 1.73 µM | 4.16 µM and 1.48 µM | 0.993 µM | 5.49 µM and 7.74 µM
2 | O=P1(S)OC[C@H]2O[C@@H]3[C@H](F)[C@@H]2OP(O)(=S)OC[C@H]2O[C@H]([C@H](F)[C@@H]2O1)n1cnc2c(ncnc21)NC/C=C/CNc1ncnc2c1ncn23 (stereo partly drawn) | > 100 µM | > 100 µM | > 100 µM | > 100 µM | > 100 µM | > 100 µM |  | > 100 µM | > 100 µM | > 100 µM | 0.239 µM | > 100 µM | 0.229 µM | > 39.9 µM | > 100 µM | > 100 µM | 5.36 µM | > 100 µM | > 100 µM | > 100 µM
3 | CC1=Nc2ccccc2/C1=C\c1c(C)[nH]c2ccccc12 |  | 31.2 µM |  | 33.3 µM |  | 28.6 µM |  | 15.1 µM |  | 25.8 µM |  | 47.5 µM |  | 77.3 µM |  | 26 µM |  | 47.1 µM |  | 27.5 µM
4 | O=c1[nH]c2nc(NC3CCOCC3)ncc2cc1Oc1ccc(F)cc1F | > 25 µM | > 25 µM | > 25 µM | > 25 µM | > 25 µM | > 25 µM | > 25 µM | > 25 µM | > 25 µM | > 25 µM | > 25 µM | > 25 µM | > 25 µM | > 25 µM | > 25 µM | > 25 µM | > 25 µM | > 25 µM | > 25 µM | > 25 µM
5 | CC(C)Cc1ccc(C(C)CC2=CCC(CN(C)C)C2=O)cc1 (stereo not drawn) |  | 30.2 µM |  | 13.6 µM |  | 30 µM |  | 38.9 µM |  | 3.34 µM |  | 3.96 µM |  | 30.9 µM |  | 10.7 µM |  | 41.6 µM |  | 30.1 µM
6 | CCOc1c(N=Nc2ccccc2Cl)c(-c2ccccc2)nn1C(=S)S |  | > 100 µM |  | > 100 µM |  | > 100 µM |  | > 100 µM |  | > 100 µM |  | 60 µM |  | 50.4 µM |  | > 100 µM |  | > 100 µM |  | > 100 µM
7 | COc1ccc(C(O)c2cc3c(N)c(C(=O)Nc4cccc(Cl)c4)sc3nc2C)cc1 (stereo not drawn) | 1.16 µM | > 22 µM | 1.14 µM | > 37.8 µM | 2.79 µM | > 46.2 µM | 2.09 µM | > 38.5 µM | 1.67 µM | > 39.6 µM | 0.339 µM |  | 0.858 µM |  | 1.1 µM | > 33.4 µM | 2.59 µM | > 51.7 µM | 2.41 µM | > 56.2 µM
8 | Cc1ccc(S(=O)(=O)c2nc(-c3ccccc3)oc2S(C)=O)cc1 (stereo not drawn) | 1.25 µM | 2.63 µM | 1.7 µM | 3.17 µM | 2.14 µM | 4.14 µM | 1.71 µM | 3.37 µM | 1.44 µM | 2.82 µM | 1.67 µM | 7.7 µM | 1.55 µM | 3.01 µM | 1.95 µM | 3.86 µM | 1.91 µM | 3.65 µM | 1.26 µM | 2.53 µM
9 | Cn1cc(C2=C(c3cn(C)c4ccc(Cl)cc34)C(=O)NC2=O)c2ccccc21 | 8.45 µM | > 25 µM | 2.21 µM | 14 µM | 5.51 µM | > 25 µM | 3.56 µM | 9.03 µM | 4.03 µM | 16.9 µM | 1.18 µM | 16.2 µM | 1.28 µM | 4.74 µM | 2.38 µM | 10.4 µM | 6 µM | > 23.5 µM | 2.54 µM | 11.7 µM
10 | O=C1CC(c2[nH]nc3ccccc23)C(=O)N1c1ccccc1 (stereo not drawn) |  | > 100 µM |  | > 100 µM |  | > 100 µM |  | > 100 µM |  | > 100 µM |  | > 100 µM |  | > 100 µM |  | > 100 µM |  | > 100 µM |  | > 100 µM
11 | C=C1C(=O)OC2CC(C)C3CC(O)OC(OCC)C3(C)CC12 (stereo not drawn) |  | > 100 µM |  | 33.8 µM |  | 34 µM |  | > 58.4 µM |  | 25.1 µM |  | > 63.1 µM |  | 35.4 µM |  | 42.6 µM |  | 50.3 µM |  | 53.7 µM
12 | CCN(c1cc(-c2ccc(CN3CCOCC3)cc2)cc(C(=O)NCc2c(C)cc(C)[nH]c2=O)c1C)C1CCOCC1 | 40.6 µM | > 100 µM | 26 µM | > 81 µM | 26.2 µM | > 93.6 µM | 17.3 µM | 37.4 µM | 17.1 µM | 40.7 µM | 21.7 µM | 58.2 µM | 16.3 µM | 33.2 µM | 19.7 µM | 52 µM | 25.9 µM | 97.2 µM | 14.9 µM | > 51.3 µM
13 | COc1cc2c(cc1O)CC1c3c(cc(O)c(OC)c3-2)CCN1C (stereo not drawn) |  | > 100 µM |  | > 100 µM |  | > 100 µM |  | > 100 µM |  | > 100 µM |  | > 100 µM |  | > 100 µM |  | > 100 µM |  | > 100 µM |  | > 100 µM
14 | Cc1c2c(c(C)c3c4c(oc13)CCCC4)C=NCC2 |  | 28.5 µM |  | 26.8 µM |  | 41.2 µM |  | 33.7 µM |  | > 100 µM |  | 23.4 µM |  | 28.9 µM |  | 33 µM |  | 54.8 µM |  | 25.8 µM
15 | O=C1CCC(N2C(=O)c3ccccc3C2=O)C(=O)N1 (stereo not drawn) |  | > 100 µM |  | > 100 µM |  | > 100 µM |  | > 100 µM |  | > 100 µM |  | > 100 µM | > 100 µM | > 100 µM |  | > 100 µM |  | > 100 µM |  | > 100 µM
16 | c1cncc(CNCc2cccnc2)c1 |  | > 100 µM |  | > 100 µM |  | > 100 µM |  | > 100 µM |  | > 100 µM |  | > 100 µM |  | > 100 µM |  | > 100 µM |  | > 100 µM |  | > 100 µM
17 | CC1=Cc2ccc(C)cc2C(=O)C1=O |  | 35.3 µM |  | 45.2 µM |  | 27.5 µM |  | 49.1 µM |  | 3.81 µM |  | 4.38 µM |  | 14.9 µM |  | 34.5 µM |  | 32 µM |  | 3.04 µM
